# Measurements published in patent US20250019387A1 (Frontier Medicines Corporation, priority 0001, published 2025).
# Target: KRAS G12C and cRAF (Ras-binding domain) interaction (Homo sapiens (Human), UniProt P01116, C118S/C51S/C80L/G12C)
# Assay: Inhibition of KRAS G12C and cRAF binding (AlphaScreen)
# Details: GMPPNP-loaded KRAS G12C, 19-20 hours incubation with compound; read-out: IC50 (Inhibition of KRAS G12C and cRAF Binding)
# Outline: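 Compounds (DMSO) preincubated 19-20 h at room temperature, then RBD with streptavidin donor and glutathione acceptor beads added in 25 mM Hepes pH 7.4, 150 mM NaCl, 5 mM MgCl2, 0.01% Triton X-100, 2% DMSO for 60-90 min. Emission 570 nm (excitation 680 nm); IC50 by 4-parameter fit. Counter-screen used biotin-AviTag-GST instead of RBD.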
# KRAS G12C and cRAF (Ras-binding domain) interaction, sequence (P01116 other isoform, or with tags, fused parts or gaps G12C/C51S/C80L/C118S): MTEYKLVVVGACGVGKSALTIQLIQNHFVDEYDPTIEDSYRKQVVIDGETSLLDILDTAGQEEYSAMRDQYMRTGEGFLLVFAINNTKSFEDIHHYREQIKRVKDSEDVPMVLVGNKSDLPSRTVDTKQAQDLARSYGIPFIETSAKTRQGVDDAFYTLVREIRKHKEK
row,Compound,IC50
1,"CN(CC1CN(C(=O)/C=C/c2nc(C3COC3)no2)C1)c1nc(OCC23CCCN2CCC3)nc2c(F)c(-c3cccc4cccc(Cl)c34)ncc12 [Example 153, (E)-1-(3-(((7-(8-chloronaphthalen-1-yl)-8-fluoro-2-((tetrahydro-1H-pyrrolizin-7a(5H)-yl)methoxy)pyrido[4,3-d]pyrimidin-4-yl)(methyl)amino)methyl)azetidin-1-yl)-3-(3-(oxetan-3-yl)-1,2,4-oxadiazol-5-yl)prop-2-en-1-one]",10 to 100 nM
2,"Cc1coc(/C=C/C(=O)N2CC[C@@H](N(C)c3nc(OCC45CCCN4CCC5)nc4c(F)c(-c5cccc6cccc(Cl)c56)ncc34)C2)n1 [Example 143, (R,E)-1-(3-((7-(8-chloronaphthalen-1-yl)-8-fluoro-2-((tetrahydro-1H-pyrrolizin-7a(5H)-yl)methoxy)pyrido[4,3-d]pyrimidin-4-yl)(methyl)amino)pyrrolidin-1-yl)-3-(4-methyloxazol-2-yl)prop-2-en-1-one]",100 to 500 nM
3,"C=CC(=O)[C@@H]1[C@@H]2CN(c3nc(OC[C@@H]4CCCN4C)nc4c3CCN(c3cccc5cccc(Cl)c35)C4)C[C@@H]21 [Example 45, 1-((1R,5S,6R)-3-(7-(8-chloronaphthalen-1-yl)-2-(((S)-1-methylpyrrolidin-2-yl)methoxy)-5,6,7,8-tetrahydropyrido[3,4-d]pyrimidin-4-yl)-3-azabicyclo[3.1.0]hexan-6-yl)prop-2-en-1-one]",10 to 100 nM
4,"C=CC(=O)N1CC[C@@H](N(C)c2nc(OC[C@@]34CCCN3C[C@H](F)C4)nc3c(F)c(-c4cccc5cc(F)cc(F)c45)ncc23)C1 [Example 268, 1-((R)-3-((7-(6,8-difluoronaphthalen-1-yl)-8-fluoro-2-(((2R,7aS)-2-fluorohexahydro-1H-pyrrolizin-7a-yl)methoxy)pyrido[4,3-d]pyrimidin-4-yl)(methyl)amino)pyrrolidin-1-yl)prop-2-en-1-one]",100 to 500 nM
5,"C=CC(=O)N1CC[C@@H](N(C)c2nc(OC[C@@]34CCCN3C[C@H](F)C4)nc3c(F)c(-c4cccc5cccc(C#CC)c45)ncc23)C1 [Example 306, 1-((R)-3-((8-fluoro-2-(((2R,7aS)-2-fluorotetrahydro-1H-pyrrolizin-7a(5H)-yl)methoxy)-7-(8-(prop-1-yn-1-yl)naphthalen-1-yl)pyrido[4,3-d]pyrimidin-4-yl)(methyl)amino)pyrrolidin-1-yl)prop-2-en-1-one]",> 500 nM
6,"Cc1ncc(F)c(/C=C/C(=O)N2CC[C@@H](N(C)c3nc(OC[C@@]45CCCN4C[C@H](F)C5)nc4c(F)c(-c5cccc6ccc(F)c(F)c56)ncc34)C2)n1 [Example 295, (E)-1-((R)-3-((7-(7,8-difluoronaphthalen-1-yl)-8-fluoro-2-(((2R,7aS)-2-fluorotetrahydro-1H-pyrrolizin-7a(5H)-yl)methoxy)pyrido[4,3-d]pyrimidin-4-yl)(methyl)amino)pyrrolidin-1-yl)-3-(5-fluoro-2-methylpyrimidin-4-yl)prop-2-en-1-one]",10 to 100 nM
7,"C=CC(=O)N1CC(CN(C)c2nc(OC[C@@]34CCCN3C[C@H](F)C4)nc3c(F)c(-c4cccc5ccc(F)c(CC)c45)ncc23)C1 [Example 254, 1-(3-(((7-(8-ethyl-7-fluoronaphthalen-1-yl)-8-fluoro-2-(((2R,7aS)-2-fluorohexahydro-1H-pyrrolizin-7a-yl)methoxy)pyrido[4,3-d]pyrimidin-4-yl)(methyl)amino)methyl)azetidin-1-yl)prop-2-en-1-one]",10 to 100 nM
8,"C#Cc1c(F)ccc2cccc(-c3ncc4c(N(C)[C@@H]5CCN(C(=O)/C=C/c6cc(C)nc(C)n6)C5)nc(OC[C@@]56CCCN5C[C@H](F)C6)nc4c3F)c12 [Example 207, (E)-3-(2,6-dimethylpyrimidin-4-yl)-1-((R)-3-((7-(8-ethynyl-7-fluoronaphthalen-1-yl)-8-fluoro-2-(((2R,7aS)-2-fluorotetrahydro-1H-pyrrolizin-7a(5H)-yl)methoxy)pyrido[4,3-d]pyrimidin-4-yl)(methyl)amino)pyrrolidin-1-yl)prop-2-en-1-one]",10 to 100 nM
9,"C#Cc1c(F)ccc2cccc(-c3ncc4c(N(C)[C@@H]5CCN(C(=O)C=C6CN(C)C6)C5)nc(OC[C@@]56CCCN5C[C@H](F)C6)nc4c3F)c12 [Example 298, 1-((R)-3-((7-(8-ethynyl-7-fluoronaphthalen-1-yl)-8-fluoro-2-(((2R,7aS)-2-fluorotetrahydro-1H-pyrrolizin-7a(5H)-yl)methoxy)pyrido[4,3-d]pyrimidin-4-yl)(methyl)amino)pyrrolidin-1-yl)-2-(1-methylazetidin-3-ylidene)ethan-1-one]",< 10 nM
10,"CN1CCC1C#CC(=O)N1CC[C@@H](N(C)c2nc(OC[C@@]34CCCN3C[C@H](F)C4)nc3c(F)c(-c4cccc5cccc(Cl)c45)ncc23)C1 (stereo partly drawn) [Example 186, 1-((R)-3-((7-(8-chloronaphthalen-1-yl)-8-fluoro-2-(((2R,7aS)-2-fluorohexahydro-1H-pyrrolizin-7a-yl)methoxy)pyrido[4,3-d]pyrimidin-4-yl)(methyl)amino)pyrrolidin-1-yl)-3-(1-methylazetidin-2-yl)prop-2-yn-1-one]",< 10 nM
11,"CN1CCC[C@H]1COc1nc2c(c(N(C)[C@@H]3CCN(C#N)C3)n1)CCN(c1cccc3cccc(Cl)c13)C2 [Example 33, (R)-3-((7-(8-chloronaphthalen-1-yl)-2-(((S)-1-methylpyrrolidin-2-yl)methoxy)-5,6,7,8-tetrahydropyrido[3,4-d]pyrimidin-4-yl)(methyl)amino)pyrrolidine-1-carbonitrile]",100 to 500 nM
12,"CCN(CC)C/C=C/S(=O)(=O)CCN(C)c1nc(OCC23CCCN2CCC3)nc2c1CCN(c1cccc3cccc(Cl)c13)C2 [Example 55, (E)-7-(8-chloronaphthalen-1-yl)-N-(2-((3-(diethylamino)prop-1-en-1-yl)sulfonyl)ethyl)-2-((hexahydro-1H-pyrrolizin-7a-yl)methoxy)-N-methyl-5,6,7,8-tetrahydropyrido[3,4-d]pyrimidin-4-amine]",< 10 nM
13,"COC(=O)/C=C/C(=O)NCCN(C)c1nc(OC[C@@H]2CCCN2C)nc2c1CCN(c1cccc3cccc(Cl)c13)C2 [Example 22, methyl(S,E)-4-((2-((7-(8-chloronaphthalen-1-yl)-2-((1-methylpyrrolidin-2-yl)methoxy)-5,6,7,8-tetrahydropyrido[3,4-d]pyrimidin-4-yl)(methyl)amino)ethyl)amino)-4-oxobut-2-enoate]",100 to 500 nM

# Same assay, conditions: additional exemplary compounds; KRAS G12C and cRAF binding; read-out: RAF1 RBD IC50
row,Compound,IC50
1,C=CC(=O)N1CCC[C@@H](Nc2nc(OC[C@@]34CCCN3C[C@H](F)C4)nc3c(F)c(-c4cccc5cccc(Cl)c45)ncc23)C1,> 500 nM
2,CN(CC1(C)CN(C#N)C1)c1nc(OC[C@@H]2CCCN2C)nc2c1CCN(c1cccc3cccc(Cl)c13)C2,> 500 nM
3,O=C(/C=C/CN1CCOCC1)N1C[C@@H]2C[C@H]1CN2c1nc(OC[C@@]23CCCN2C[C@H](F)C3)nc2c(F)c(-c3cccc4cccc(Cl)c34)ncc12,> 500 nM
4,CN(C)C/C=C/C(=O)N1CC[C@@H](N(C)c2nc(OC[C@@]34CCCN3C[C@H](F)C4)nc3c(F)c(-c4cccc5ccc(F)c(Cl)c45)ncc23)C1,10 to 100 nM
5,CN(c1nc(OCC23CCCN2CCC3)nc2c(F)c(-c3cccc4cccc(Cl)c34)ncc12)[C@@H]1CCN(C(=O)/C=C/c2ccncn2)C1,> 500 nM
6,C=CC(=O)N(C)CC1CCN1c1nc(OC[C@@]23CCCN2C[C@H](F)C3)nc2c(F)c(-c3cccc4cccc(Cl)c34)ncc12 (stereo partly drawn),> 500 nM
7,CCN(C/C=C/S(=O)(=O)CCN(C)c1nc(OCC23CCCN2CCC3)nc2c(F)c(-c3cccc4cccc(Cl)c34)ncc12)CCOC,10 to 100 nM
8,C=CC(=O)N1C[C@H](F)[C@@H](N(C)c2nc(OC[C@@]34CCCN3C[C@H](F)C4)nc3c(F)c(-c4cccc5cccc(Cl)c45)ncc23)C1 [drawing 2208],10 to 100 nM
9,Cc1nccc(/C=C/C(=O)N2C[C@H]3CC[C@@H](C2)N3c2nc(OC[C@@]34CCCN3C[C@H](F)C4)nc3c(F)c(-c4cccc5cccc(Cl)c45)ncc23)n1,> 500 nM
10,CN(C)C/C=C/S(=O)(=O)C1CCCN(c2nc(OCC34CCCN3CCC4)nc3c2CCN(c2cccc4cccc(Cl)c24)C3)C1 (stereo not drawn),10 to 100 nM
11,Cc1nccc(/C=C/C(=O)N2C3CC2CN(c2nc(OC[C@@]45CCCN4C[C@H](F)C5)nc4c(F)c(-c5cccc6cccc(Cl)c56)ncc24)C3)n1,> 500 nM
12,Cc1nccc(/C=C/C(=O)N2CCC[C@H](Nc3nc(OC[C@@]45CCCN4C[C@H](F)C5)nc4c(F)c(-c5cccc6cccc(Cl)c56)ncc34)C2)n1,> 500 nM
13,C=CC(=O)N1CC[C@H](F)[C@@H](N(C)c2nc(OC[C@@]34CCCN3C[C@H](F)C4)nc3c(F)c(-c4cccc5cccc(Cl)c45)ncc23)C1,> 500 nM
14,CC(C)c1noc(/C=C/C(=O)N2CCN(c3nc(OC[C@@]45CCCN4C[C@H](F)C5)nc4c3CCN(c3cccc5cccc(Cl)c35)C4)CC2)n1,> 500 nM
15,O=C(/C=C/CN1C2CCC1COC2)N1CCN(c2nc(OC[C@@]34CCCN3C[C@H](F)C4)nc3c(F)c(-c4cccc5cccc(Cl)c45)ncc23)C2CC21 (stereo partly drawn),> 500 nM
16,C=CC(=O)N1C2CCC1CN(c1nc(OCC34CCCN3CCC4)nc3c1CCN(c1cccc4cccc(Cl)c14)C3)C2,> 500 nM
17,Cc1nccc(/C=C/C(=O)N2CCC23CN(c2nc(OC[C@@]45CCCN4C[C@H](F)C5)nc4c(F)c(-c5cccc6cccc(Cl)c56)ncc24)C3)n1,> 500 nM
18,C=CC(=O)N1CC[C@@H](N(CC)c2nc(OC[C@@]34CCCN3C[C@H](F)C4)nc3c(F)c(-c4cccc5cccc(Cl)c45)ncc23)C1,> 500 nM
19,C=CC(=O)N1CC(CN(C)c2nc(OC[C@]34CCCN3C[C@@H](F)C4)nc3c2CCN(c2cccc4cccc(Cl)c24)C3)C1,100 to 500 nM
20,Cc1nccc(/C=C/C(=O)N2C[C@@H](F)[C@H](N(C)c3nc(OC[C@@]45CCCN4C[C@H](F)C5)nc4c(F)c(-c5cccc6cccc(Cl)c56)ncc34)C2)n1,> 500 nM
